What was measured:
[1] = test system: patients with pre-existing gas exchange problems; test: Ventilation-perfusion matching by multiple inert gas elimination technique (MIGET); details: during NO-inhalation (20 ppm); mean±95% confidence interval; n=5
Protocol: The impact of SMI-TRE on ventilation-perfusion matching was assessed in five patients (30 μg TRE, n=2; 45 μg TRE, n=1; 60 μg TRE, n=2) with pre-existing gas exchange problems by use of the multiple inert gas elimination technique (MIGET), see e.g. Wagner PD, Saltzman HA, West JB. Measurement of continuous distributions of ventilation-perfusion ratios: theory. J Appl Physiol. 1974; 36:588-99; Ghofrani HA, Wiedemann R, Rose F, Schermuly RT, Olschewski H, Weissmann N et al. Sildenafil for treatment of lung fibrosis and pulmonary hypertension: a randomised controlled trial. Lancet. 2002; 360:895-900, both incorporated herein in their entirety.
The inhalation of a highly concentrated aerosol can be in theory prone to disturbances of gas exchange because the deposition of even small amounts of aerosol may deliver high doses locally and thereby antagonize the hypoxic pulmonary vasoconstriction in poorly ventilated areas. This would then lead to increased shunt flow or increase of low ventilation/perfusion (V/Q) areas. This question was addressed in five patients with the multiple inert gas elimination technique (MIGET), the gold-standard for intrapulmonary V/Q ratio determination. The MIGET patients were selected for pre-existing gas exchange limitations. […] Etiologies were iPAH (n=1), CTEPH (n=3), pulmonary fibrosis (n=1).

[2] = test system: patients with moderate to severe precapillary pulmonary hypertension; test: Study i) randomized crossover study of inhaled treprostinil vs inhaled iloprost, right heart catheter; assay type: in vivo, human
Protocol: All inhalations were performed with the […]® ultrasonic nebulizer ([…], Germany). Study i) was a randomized, open-label, single-blind crossover study. […] Patient characteristics and hemodynamic as well as gas exchange parameters are outlined in Table 3. Each patient inhaled both iloprost and treprostinil on the same day during right heart catheter investigation; the drugs were administered consecutively with a one hour interval between the drug applications. One half of the study patients initially inhaled treprostinil and then inhaled iloprost (n=22), while the other half initially inhaled iloprost and then inhaled treprostinil (n=22). Patients were randomized to one of the two groups and blinded as to the study drugs. Drug effects were monitored for 60 minutes after each inhalation.

SMILES	shunt flow [1] [%]	area under the curve (AUC) of PVR decrease ([2]; 7.5 μg inhaled in 6 minutes, start of inhalation until 60 min, mean±95% confidence interval) [%]	gas exchange ([2]; after inhalation)	systemic arterial pressure (SAP) ([2]; after inhalation)	side effects (transient flush, headache) ([2]; iloprost 7.5 μg, treprostinil 7.5-15 μg)	maximum effect on PVR ([2]; iloprost vs treprostinil, pooled)	time to maximum effect on PVR after inhalation ([2]; pooled n=44, mean±SEM, p<0.0001) [min]
[N]=O [NO, nitric oxide]	5.4±3.0						
CC#CCC(C)[C@H](O)/C=C/[C@@H]1[C@H]2C/C(=C/CCCC(=O)O)C[C@H]2C[C@H]1O (stereo partly shown) [iloprost]		7.7±3.7	did not affect gas exchange	transient decrease	occasionally observed mild side effects	comparable	8 ± 1
